According to article PMC7023430, “4-Aminobenzoic Acid Derivatives: Converting Folate Precursor to Antimicrobial and Cytotoxic Agents” (Biomolecules, 2019):
Read-outs that look alike come from different tables or passages of the source.

Columns and labels:
[1] = tested on: methicillin-resistant Staphylococcus aureus ATCC 43300, CCM 4750 (MRSA); experiment: Antibacterial microdilution broth method, MRSA; type: cell-based; conditions: Staphylococcus aureus
[2] = tested on: Aspergillus fumigatus 231; experiment: Antifungal microdilution broth method, A. fumigatus; type: cell-based
In short: (§1)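 EUCAST-based broth microdilution with slight modifications: compounds dissolved in DMSO and diluted twofold in RPMI-1640 with L-glutamine, 2% glucose, MOPS-buffered to pH 7.0. MIC endpoints were read visually, in duplicate, valid only if parallel MICs differed by no more than one dilution step.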

Candida glabrata 20/I = experiment: Antifungal microdilution broth method, C. glabrata; type: cell-based; conditions: Nakaseomyces glabratus
In short: as §1

Trichosporon asahii 1188 = experiment: Antifungal microdilution broth method, T. asahii; type: cell-based
In short: as §1

Candida krusei E28 = experiment: Antifungal microdilution broth method, C. krusei; type: cell-based; conditions: Pichia kudriavzevii
In short: as §1

[3] = tested on: Mycobacterium avium 330/88; experiment: Antimycobacterial micromethod in Šula's medium, M. avium; type: cell-based
Candida tropicalis 156 = experiment: Antifungal microdilution broth method, C. tropicalis; type: cell-based
In short: as §1

[4] = tested on: Lichtheimia corymbifera 272; experiment: Antifungal microdilution broth method, L. corymbifera; type: cell-based
In short: as §1

[5] = tested on: ESBL-positive Klebsiella pneumoniae J 14368/08
[6] = tested on: M. kansasii 6509/96 (clinical isolate); experiment: Antimycobacterial micromethod in Šula's medium, M. kansasii 6509/96; type: cell-based; conditions: Mycobacterium kansasii
[7] = tested on: Mycobacterium kansasii 235/80; experiment: Antimycobacterial micromethod in Šula's medium, M. kansasii 235/80; type: cell-based
[8] = tested on: Candida albicans ATCC 44859; experiment: Antifungal microdilution broth method, C. albicans; type: cell-based
In short: as §1

[9] = tested on: Trichophyton interdigitale 445; experiment: Antifungal microdilution broth method, T. interdigitale; type: cell-based
In short: as §1

[10] = tested on: Enterococcus faecalis ATCC 29212, CCM 4224; experiment: Antibacterial microdilution broth method, E. faecalis; type: cell-based; conditions: Enterococcus faecalis
[11] = tested on: Escherichia coli ATCC 25922, CCM 3954; experiment: Antibacterial microdilution broth method, E. coli; type: cell-based; conditions: Escherichia coli
[12] = tested on: Klebsiella pneumoniae D 11750/08; experiment: Antibacterial microdilution broth method, K. pneumoniae; conditions: K. pneumoniae D 11750/08; for MIC KP 24 h: 24 h incubation; for MIC KP 48 h: 48 h incubation
[13] = tested on: Staphylococcus aureus ATCC 29213, CCM 4223; experiment: Antibacterial microdilution broth method, S. aureus; type: cell-based
[14] = tested on: Mycobacterium tuberculosis H37Rv (331/88); experiment: Antimycobacterial micromethod in Šula's medium, M. tuberculosis; type: cell-based
[15] = 24 h incubation, read-out: MIC MRSA 24 h
[16] = 48 h incubation, read-out: MIC MRSA 48 h
[17] = 330/88, 336 h, 14 days incubation at 37 °C, read-out: MIC M. avium 330/88 14 d
[18] = 330/88, 504 h, 21 days incubation at 37 °C, read-out: MIC M. avium 330/88 21 d
[19] = 168 h, 7 days incubation at 37 °C, read-out: MIC M. kansasii 6509/96 7 d
[20] = 336 h, 14 days incubation at 37 °C, read-out: MIC M. kansasii 6509/96 14 d
[21] = 504 h, 21 days incubation at 37 °C, read-out: MIC M. kansasii 6509/96 21 d
[22] = 235/80, 168 h, 7 days incubation at 37 °C, read-out: MIC M. kansasii 235/80 7 d
[23] = 235/80, 336 h, 14 days incubation at 37 °C, read-out: MIC M. kansasii 235/80 14 d
[24] = 235/80, 504 h, 21 days incubation at 37 °C, read-out: MIC M. kansasii 235/80 21 d
[25] = ATCC44859, 24 h, read-out: MIC CA 24 h
[26] = ATCC44859, 48 h, read-out: MIC CA 48 h
[27] = 24 h incubation, read-out: MIC EF 24 h
[28] = 48 h incubation, read-out: MIC EF 48 h
[29] = 24 h incubation, read-out: MIC EC 24 h
[30] = 48 h incubation, read-out: MIC EC 48 h
[31] = 24 h incubation, read-out: MIC SA 24 h
[32] = 48 h incubation, read-out: MIC SA 48 h
[33] = 336 h, 14 days incubation at 37 °C, read-out: MIC Mtb. 331/88 14 d
[34] = 504 h, 21 days incubation at 37 °C, read-out: MIC Mtb. 331/88 21 d

O=C(O)c1ccc(N=Cc2ccc(Cl)cc2O)cc1 [1l, 4-[(4-Chloro-2-hydroxybenzylidene)amino]benzoic acid]
500 µM: MIC (Candida glabrata 20/I; 24 h, read-out: MIC CG 24 h) | MIC (Trichosporon asahii 1188; 24 h, read-out: MIC TA 24 h) | MIC (Candida krusei E28; 24 h, read-out: MIC CK 24 h) | MIC (Candida tropicalis 156; 24 h, read-out: MIC CT 24 h) | MIC [6, 21] | MIC [7, 23] | MIC [7, 24] | MIC ([9]; 72 h, read-out: MIC TI 72 h) | MIC [14, 34]
1000 µM: MIC [3, 17] | MIC [3, 18]
250 µM: MIC ([2]; 24 h, read-out: MIC AF 24 h) | MIC [6, 19] | MIC [6, 20] | MIC [7, 22] | MIC [8, 25] | MIC [14, 33]
>500 µM: MIC KP-E 24 h [5] | MIC KP-E 48 h [5] | MIC KP 24 h [12] | MIC KP 48 h [12]
> 500 µM: MIC [1, 15] | MIC [1, 16] | MIC ([2]; 48 h, read-out: MIC AF 48 h) | MIC (Candida glabrata 20/I; 48 h, read-out: MIC CG 48 h) | MIC (Trichosporon asahii 1188; 48 h, read-out: MIC TA 48 h) | MIC (Candida krusei E28; 48 h, read-out: MIC CK 48 h) | MIC (Candida tropicalis 156; 48 h, read-out: MIC CT 48 h) | MIC ([4]; 24 h, read-out: MIC LC 24 h) | MIC ([4]; 48 h, read-out: MIC LC 48 h) | MIC [8, 26] | MIC ([9]; 120 h, read-out: MIC TI 120 h) | MIC [10, 27] | MIC [10, 28] | MIC [11, 29] | MIC [11, 30] | MIC [13, 31] | MIC [13, 32]

O=C(O)c1ccc(N=Cc2cccc(Cl)c2O)cc1 [1m, 4-[(3-Chloro-2-hydroxybenzylidene)amino]benzoic acid]
250 µM: MIC ([2]; 24 h, read-out: MIC AF 24 h) | MIC ([2]; 48 h, read-out: MIC AF 48 h) | MIC (Candida krusei E28; 24 h, read-out: MIC CK 24 h) | MIC (Candida krusei E28; 48 h, read-out: MIC CK 48 h) | MIC [6, 19]
> 500 µM: MIC [1, 15] | MIC [1, 16] | MIC [10, 27] | MIC [10, 28] | MIC [11, 29] | MIC [11, 30] | MIC [13, 31] | MIC [13, 32]
1000 µM: MIC [3, 17] | MIC [3, 18]
>500 µM: MIC KP-E 24 h [5] | MIC KP-E 48 h [5] | MIC KP 24 h [12] | MIC KP 48 h [12]
500 µM: MIC ([4]; 24 h, read-out: MIC LC 24 h) | MIC ([4]; 48 h, read-out: MIC LC 48 h) | MIC [6, 20] | MIC [6, 21] | MIC [7, 22] | MIC [7, 23] | MIC [7, 24] | MIC [14, 33] | MIC [14, 34]
125 µM: MIC (Trichosporon asahii 1188; 24 h, read-out: MIC TA 24 h) | MIC (Trichosporon asahii 1188; 48 h, read-out: MIC TA 48 h) | MIC ([9]; 72 h, read-out: MIC TI 72 h) | MIC ([9]; 120 h, read-out: MIC TI 120 h)
62.5 µM: MIC (Candida glabrata 20/I; 24 h, read-out: MIC CG 24 h) | MIC (Candida glabrata 20/I; 48 h, read-out: MIC CG 48 h) | MIC (Candida tropicalis 156; 24 h, read-out: MIC CT 24 h) | MIC (Candida tropicalis 156; 48 h, read-out: MIC CT 48 h)
31.2 µM: MIC [8, 25] | MIC [8, 26]

O=C(O)c1ccc(N=Cc2cc(Cl)cc(Cl)c2O)cc1 [1n, 4-[(3,5-Dichloro-2-hydroxybenzylidene)amino]benzoic acid]
250 µM: MIC [1, 15] | MIC [1, 16] | MIC (Candida tropicalis 156; 24 h, read-out: MIC CT 24 h) | MIC (Candida tropicalis 156; 48 h, read-out: MIC CT 48 h) | MIC [6, 19] | MIC ([9]; 72 h, read-out: MIC TI 72 h) | MIC ([9]; 120 h, read-out: MIC TI 120 h)
> 500 µM: MIC [10, 27] | MIC [10, 28] | MIC [11, 29] | MIC [11, 30]
125 µM: MIC (Candida glabrata 20/I; 24 h, read-out: MIC CG 24 h) | MIC (Candida glabrata 20/I; 48 h, read-out: MIC CG 48 h) | MIC (Trichosporon asahii 1188; 24 h, read-out: MIC TA 24 h) | MIC (Trichosporon asahii 1188; 48 h, read-out: MIC TA 48 h) | MIC (Candida krusei E28; 24 h, read-out: MIC CK 24 h) | MIC (Candida krusei E28; 48 h, read-out: MIC CK 48 h) | MIC [8, 25] | MIC [8, 26] | MIC [13, 31] | MIC [13, 32]
>500 µM: MIC KP-E 24 h [5] | MIC KP-E 48 h [5] | MIC KP 24 h [12] | MIC KP 48 h [12]
500 µM: MIC ([2]; 24 h, read-out: MIC AF 24 h) | MIC ([2]; 48 h, read-out: MIC AF 48 h) | MIC ([4]; 24 h, read-out: MIC LC 24 h) | MIC ([4]; 48 h, read-out: MIC LC 48 h) | MIC [6, 20] | MIC [6, 21] | MIC [7, 22] | MIC [7, 23] | MIC [7, 24] | MIC [14, 33] | MIC [14, 34]
1000 µM: MIC [3, 17] | MIC [3, 18]
